According to US20170022258A1, “PEPTIDES FOR USE IN THE TREATMENT OF IL-1 RELATED DISEASES AND CONDITIONS” (C4M PHARMACEUTICALS PTY LTD., priority 2011, published 2017):
Non-standard residues stand in square brackets, D forms with d. Residues, ends and D or L forms follow the SMILES beside them. No end group written: not given here.

T1: IL-1 receptor (IL-1R) expressed on human monocytes (human, UniProt P14778 18-569)
T1 sequence (looked up): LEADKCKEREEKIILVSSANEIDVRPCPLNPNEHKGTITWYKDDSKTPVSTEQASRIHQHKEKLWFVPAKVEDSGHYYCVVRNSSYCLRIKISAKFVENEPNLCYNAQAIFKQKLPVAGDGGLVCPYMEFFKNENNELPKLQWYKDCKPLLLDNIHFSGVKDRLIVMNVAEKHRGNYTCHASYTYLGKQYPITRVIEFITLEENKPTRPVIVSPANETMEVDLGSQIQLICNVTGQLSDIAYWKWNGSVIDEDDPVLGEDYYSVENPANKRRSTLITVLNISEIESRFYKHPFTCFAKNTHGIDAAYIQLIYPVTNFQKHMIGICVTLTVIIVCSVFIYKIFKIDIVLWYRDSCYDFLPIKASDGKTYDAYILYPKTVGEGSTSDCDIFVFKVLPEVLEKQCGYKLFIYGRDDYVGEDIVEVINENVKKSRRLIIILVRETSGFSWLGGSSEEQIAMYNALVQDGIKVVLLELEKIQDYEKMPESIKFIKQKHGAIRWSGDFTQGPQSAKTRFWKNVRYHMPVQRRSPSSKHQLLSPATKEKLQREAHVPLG

T2: IL-1 receptor (Homo sapiens, UniProt P14778)
T2 construct: confluent human monocytes, which express the IL-1 receptor; endogenous in cells; host or cells: human monocytes
T2 sequence (P14778 18-569): T1 sequence (looked up)


What follows are molecules tested against T1, IL-1 receptor (IL-1R) expressed on … (assay: cell-based or functional assay). Settings: not given.
In the case of Ac-[dK][dD][dQ][dK][dR][dN][dE][dS][dL][dD][dT][dI][dN][dV][dA][dE][dL][dQ][dL] [peptide of SEQ ID NO: 12 (Ac-KDQKRNESLDTINVAELQL, D-amino acids)], the “IC50, in vitro inhibition of IL-1 stimulation of IL-8 in human skin fibroblasts (rIL-1β 50 pg/ml, IL-8 ELISA)” value is reported as greater than 10000 nM.
With Ac-ETPFTWEESNAYYWQPYALPL (also called peptide 13) [peptide of SEQ ID NO: 13 (Ac-ETPFTWEESNAYYWQPYALPL)] the “IC50, in vitro inhibition of IL-1 stimulation of IL-8 in human skin fibroblasts (rIL-1β 50 pg/ml, IL-8 ELISA)” value was 11 nM.

What follows are molecules tested against IL-1 receptor (IL-1R) expressed on human monocytes (human) (UniProt P14778) (assay: cell-based or functional assay). Settings: not given.
In the case of Ac-[dL][dP][dL][dA][dY][dP][dQ][dW][dY][dY][dA][dN][dS][dE][dE][dW][dT][dF][dP][dT][dE] [peptide of SEQ ID NO: 14 (Ac-…, D-amino acids)], the IC50, in vitro inhibition of IL-1 stimulation of IL-8 in human skin fibroblasts (rIL-1β 50 pg/ml, IL-8 ELISA) is reported as 11 nM.

The molecules below were run on IL-1 stimulation of IL-8 in human skin fibroblasts (assay: Inhibition of IL-1 induced IL-8 in human fibroblasts). Settings: inhibition of IL-1 stimulation of IL-8 in human skin fibroblasts; average of three measurements and standard error; read-out: Binding (IC50 nM).
Type: cell-based
Experimental: Inhibition of IL-1 induced IL-8 in human fibroblasts was determined using normal human dermal fibroblast cells cultured in DMEM with 10% fetal calf serum in 48-well plates.
Twenty-four hours before initiation of the experiment, the medium was changed to DMEM with 0.2% fetal calf serum. Each peptide was added to confluent cells, which were then pulsed for 30 min with rIL-I,B (which was obtained from R & D Systems) at 50 pg/ml. The cells were washed four times with PBS, and fresh DMEM/0.2% fetal calf serum was added to each well. After 5 hr of incubation, the culture media were collected and analyzed by ELISA for IL-8 (which was obtained from R & D Systems). Maximal activation, with IL-1 only, was 2530±13 pg/ml of IL-8. Nonspecific activation, determined in the presence of 1000-fold excess IL-1Ra, was 30±9 pg/ml of IL-8 (n=3).
In the case of `CC(=O)N[C@@H](Cc1ccccc1)C(=O)N[C@H](C(=O)N[C@@H](Cc1c[nH]c2ccccc12)C(=O)N[C@@H](CCC(=O)O)C(=O)N[C@@H](CCC(=O)O)C(=O)N[C@@H](CO)C(=O)N[C@@H](CC(N)=O)C(=O)N[C@@H](C)C(=O)N[C@@H](Cc1ccc(O)cc1)C(=O)N[C@@H](Cc1ccc(O)cc1)C(=O)N[C@@H](Cc1c[nH]c2ccccc12)C(=O)N[C@@H](CCC(N)=O)C(=O)N1CCC[C@H]1C(=O)N[C@@H](Cc1ccc(O)cc1)C(=O)N[C@@H](C)C(=O)N[C@@H](CC(C)C)C(=O)N1CCC[C@H]1C(=O)N[C@@H](CC(C)C)C(=O)O)[C@@H](C)O` [SEQ ID NO. 15, Ac-FTWEESNAYYWQPYALPL] (Ac-FTWEESNAYYWQPYALPL-OH; C-terminus assumed), the IC50 is reported as 16 nM.
`CC(=O)N[C@H](CC(C)C)C(=O)N1CCC[C@@H]1C(=O)N[C@H](CC(C)C)C(=O)N[C@H](C)C(=O)N[C@H](Cc1ccc(O)cc1)C(=O)N1CCC[C@@H]1C(=O)N[C@H](CCC(N)=O)C(=O)N[C@H](Cc1c[nH]c2ccccc12)C(=O)N[C@H](Cc1ccc(O)cc1)C(=O)N[C@H](Cc1ccc(O)cc1)C(=O)N[C@H](C)C(=O)N[C@H](CC(N)=O)C(=O)N[C@H](CO)C(=O)N[C@H](CCC(=O)O)C(=O)N[C@H](CCC(=O)O)C(=O)N[C@H](Cc1c[nH]c2ccccc12)C(=O)N[C@@H](C(=O)N[C@H](Cc1ccccc1)C(=O)O)[C@H](C)O` [SEQ ID NO. 16, Ac-LPLAYPQWYYANSEEWTF] (Ac-[dL][dP][dL][dA][dY][dP][dQ][dW][dY][dY][dA][dN][dS][dE][dE][dW][dT][dF]-OH; C-terminus assumed) gave an IC50 of 120 nM.
`CC(=O)N[C@H](C(=O)N[C@@H](C)C(=O)N[C@@H](CC(N)=O)C(=O)N[C@H](C(=O)N[C@@H](CO)C(=O)N[C@@H](CO)C(=O)N[C@@H](Cc1ccccc1)C(=O)N[C@@H](CCC(=O)O)C(=O)N[C@@H](Cc1c[nH]c2ccccc12)C(=O)N[C@H](C(=O)N1CCC[C@H]1C(=O)NCC(=O)N[C@@H](Cc1ccc(O)cc1)C(=O)N[C@@H](Cc1c[nH]c2ccccc12)C(=O)N[C@@H](CCC(N)=O)C(=O)N1CCC[C@H]1C(=O)N[C@@H](Cc1ccc(O)cc1)C(=O)N[C@@H](C)C(=O)N[C@@H](CC(C)C)C(=O)N1CCC[C@H]1C(=O)N[C@@H](CC(C)C)C(=O)O)[C@@H](C)O)C(C)C)[C@@H](C)O` [SEQ ID NO. 17] (Ac-TANVSSFEWTPGYWQPYALPL-OH; C-terminus assumed) gave an IC50 of 76 nM.
`CC(=O)N[C@H](CC(C)C)C(=O)N1CCC[C@@H]1C(=O)N[C@H](CC(C)C)C(=O)N[C@H](C)C(=O)N[C@H](Cc1ccc(O)cc1)C(=O)N1CCC[C@@H]1C(=O)N[C@H](CCC(N)=O)C(=O)N[C@H](Cc1c[nH]c2ccccc12)C(=O)N[C@H](Cc1ccc(O)cc1)C(=O)NCC(=O)N1CCC[C@@H]1C(=O)N[C@@H](C(=O)N[C@H](Cc1c[nH]c2ccccc12)C(=O)N[C@H](CCC(=O)O)C(=O)N[C@H](Cc1ccccc1)C(=O)N[C@H](CO)C(=O)N[C@H](CO)C(=O)N[C@@H](C(=O)N[C@H](CC(N)=O)C(=O)N[C@H](C)C(=O)N[C@@H](C(=O)O)[C@H](C)O)C(C)C)[C@H](C)O` [SEQ ID NO. 18] showed an IC50 of 810 nM.
In the case of `CC(=O)N[C@@H](CC(=O)O)C(=O)NCC(=O)N[C@@H](Cc1ccc(O)cc1)C(=O)N[C@@H](CC(=O)O)C(=O)N[C@@H](CCCNC(=N)N)C(=O)N[C@@H](Cc1c[nH]c2ccccc12)C(=O)N[C@@H](CCCNC(=N)N)C(=O)N[C@@H](CCC(N)=O)C(=O)N[C@@H](CO)C(=O)NCC(=O)N[C@@H](CCC(=O)O)C(=O)N[C@@H](CCCNC(=N)N)C(=O)N[C@@H](Cc1ccc(O)cc1)C(=O)N[C@@H](Cc1c[nH]c2ccccc12)C(=O)N[C@@H](CCC(N)=O)C(=O)N1CCC[C@H]1C(=O)N[C@@H](Cc1ccc(O)cc1)C(=O)N[C@@H](C)C(=O)N[C@@H](CC(C)C)C(=O)N1CCC[C@H]1C(=O)N[C@@H](CC(C)C)C(=O)O` [SEQ ID NO. 20] (Ac-DGYDRWRQSGERYWQPYALPL-OH; C-terminus assumed), the IC50 is reported as 19 nM.
For `CC(=O)N[C@H](CC(C)C)C(=O)N1CCC[C@@H]1C(=O)N[C@H](CC(C)C)C(=O)N[C@H](C)C(=O)N[C@H](Cc1ccc(O)cc1)C(=O)N1CCC[C@@H]1C(=O)N[C@H](CCC(N)=O)C(=O)N[C@H](Cc1c[nH]c2ccccc12)C(=O)N[C@H](Cc1ccc(O)cc1)C(=O)N[C@H](CCCNC(=N)N)C(=O)N[C@H](CCC(=O)O)C(=O)NCC(=O)N[C@H](CO)C(=O)N[C@H](CCC(N)=O)C(=O)N[C@H](CCCNC(=N)N)C(=O)N[C@H](Cc1c[nH]c2ccccc12)C(=O)N[C@H](CCCNC(=N)N)C(=O)N[C@H](CC(=O)O)C(=O)N[C@H](Cc1ccc(O)cc1)C(=O)NCC(=O)N[C@H](CC(=O)O)C(=O)O` [SEQ ID NO. 21] (Ac-[dL][dP][dL][dA][dY][dP][dQ][dW][dY][dR][dE]G[dS][dQ][dR][dW][dR][dD][dY]G[dD]-OH; C-terminus assumed), the IC50 was 730 nM.

These molecules were tested against T2, IL-1 receptor (assay: Radioligand competition binding assay (125I-labeled IL-1α) on human monocytes). Settings: IL-1 binding antagonism on human monocytes; average of three measurements and standard error.
Experimental: Radioligand competition binding assays were performed in 96-well plates containing confluent human monocytes, which express the IL-1 receptor. Wells were washed three times with binding buffer, and binding buffer was placed in each well. Peptides were resuspended in dimethyl sulfoxide at 20 mM and diluted in binding buffer to the desired starting concentration. Using a Beckman robotic system, five 3-fold dilutions were prepared, and peptide solution was transferred to duplicate receptor-containing wells. To each well, radioactive ^125Iodine-labeled IL-Ia (Amersham) was added to a final concentration of 40 pM, and the plates were placed on a shaking platform at 4° C. for 2 hr. Plates were washed with PBS using a plate washer, and bound ^125I-labeled IL-la was eluted for 10 min with 0.1 M NaOH and counted in a gamma counter. IC50 values were determined by fitting the data to a two-parameter logistic equation. In all cases, nonspecific binding was determined by the addition of 3 μM of recombinant IL-Ia.
Molecule `CC(=O)N[C@@H](CC(N)=O)C(=O)N[C@@H](CC(N)=O)C(=O)N[C@@H](CCC(N)=O)C(=O)N[C@@H](CC(C)C)C(=O)N[C@H](C(=O)N[C@@H](C)C(=O)NCC(=O)N[C@@H](Cc1ccc(O)cc1)C(=O)N[C@@H](CC(C)C)C(=O)N[C@@H](CCC(N)=O)C(=O)NCC(=O)N1CCC[C@H]1C(=O)N[C@@H](CC(N)=O)C(=O)N[C@H](C(=O)N[C@@H](CC(N)=O)C(=O)O)C(C)C)C(C)C` [SEQ ID NO. 7, Ac-NNQLVAGYLQGPNVN] (Ac-NNQLVAGYLQGPNVN-OH; C-terminus assumed) has an IC50 greater than 10000 nM.
`CC[C@H](C)[C@H](NC(C)=O)C(=O)N[C@@H](CC(=O)O)C(=O)N[C@H](C(=O)N[C@H](C(=O)N1CCC[C@H]1C(=O)N[C@H](C(=O)N[C@@H](CCC(=O)O)C(=O)N[C@@H](C)C(=O)N1CCC[C@H]1C(=O)N[C@@H](Cc1c[nH]cn1)C(=O)N[C@@H](C)C(=O)N[C@@H](CC(C)C)C(=O)N[C@@H](Cc1ccccc1)C(=O)N[C@@H](CC(C)C)C(=O)NCC(=O)N[C@H](C(=O)N[C@@H](Cc1c[nH]cn1)C(=O)NCC(=O)NCC(=O)N[C@@H](CCCCN)C(=O)O)[C@@H](C)CC)[C@@H](C)CC)C(C)C)C(C)C` [SEQ ID NO. 9] (Ac-IDVVPIEAPHALFLGIHGGK-OH; C-terminus assumed) was tested, and the IC50 was greater than 10000 nM.
`CC[C@H](C)[C@H](NC(=O)[C@H](CC(N)=O)NC(=O)[C@@H](NC(=O)[C@H](C)NC(=O)[C@H](CCC(=O)O)NC(=O)[C@H](CC(C)C)NC(=O)[C@H](CCC(N)=O)NC(=O)[C@H](CC(C)C)NC(C)=O)C(C)C)C(=O)N[C@H](C(=O)N[C@@H](CC(=O)O)C(=O)N[C@@H](CC(C)C)C(=O)N[C@@H](CO)C(=O)N[C@@H](CCC(=O)O)C(=O)N[C@@H](CC(N)=O)C(=O)N[C@@H](CCCNC(=N)N)C(=O)N[C@@H](CCCCN)C(=O)N[C@@H](CCC(N)=O)C(=O)N[C@@H](CC(=O)O)C(=O)N[C@@H](CCCCN)C(=O)O)[C@@H](C)O` [SEQ ID NO. 11, Ac-LQLEAVNITDLSENRKQDK] (Ac-LQLEAVNITDLSENRKQDK-OH; C-terminus assumed) showed an IC50 greater than 10000 nM.
